Measurements taken from patent US9138398B2, “Cationic alcohols and uses thereof” (Living Proof, Inc., priority 2009, dated 2015).

Test: Contact angle measurements of hair fiber (Cahn DCA-312 tensiometer)
Settings: 1.5% Example 15 in conditioner C2, 20 cycles, versus placebo conditioner C1
Text: As described previously, improving upon benefits such as hydrophobicity, shine and tactile properties leads to the perception of healthier, more conditioned hair. Contact angle measurement has proven to be a viable method to measure the degree of hydrophobicity of hair. In principle, it measures the angle at the point of contact of a liquid with a surface. If the surface is highly hydrophobic (such as virgin, untreated hair), the angle of the water droplet at the interface would be greater than 90°. Likewise, a hydrophilic surface would cause the water droplet to fall flat, and the angle would be close to 0°.
Virgin black hair tresses (1.5 g each, from International Hair Importers) were bleached once with a homogeneous mixture of Clairol Pure White 20V hydrogen peroxide solution (45 ml) and Clairol bleach powder Ultra Concentrate BW2000 (6.75 g) for 10 min at 50° C. The tresses were shampooed with a 7.5% Sodium Lauryl Sulfate solution twice and air-dried for 24 h. […]
Contact angle measurements were performed with a Cahn DCA-312 tensiometer. […] The water surface tension was determined with a platinum DuNuoy ring (Cat 14-812-5) to be 70.6 mN/m. […]
The hair fiber diameter was measured with a precision micrometer (Mitutoyo Cat 293-761-30). […] The advancing and receding contact angles were measured for each sample, with runs performed in triplicate.

## C[N+](C)(CC[N+](C)(C)CC(O)COCC(F)(F)C(F)F)CC(O)COCC(F)(F)C(F)F (stereo not shown) [Example 15]
  Change of contact angle of bleached hair (hydrophobicity), in words: significantly increased the contact angle
